Data reported in patent publication US11649502B2, “Exosomal microRNA in serum as an indicator for the activation of brown and beige fat tissue (BAT)” (RHEINISCHE FRIEDRICH-WILHELMS-UNIVERSITÄT BONN, priority 2015, dated 2023).

Tests used:
C57BL/6J wild type mice = experiment: qPCR of exosomal miRNAs in mouse serum after BAT activation; assay type: in vivo
Experimental: Cold exposure was performed by housing 12 week old male mice at 4° C. for 7 days. The β3-adrenergic agonist CL-316,243 (#1499, Tocris, Wiesbaden, GER, 0.2 mg/mL in 0.9 W/V % NaCl) was administered by subcutaneous injection (1 μg per g body weight) for 7 days. Control-treated C57BL/6J mice received vehicle injections (0.9% NaCl) correspondingly. Blood collections were performed after 4 hours of fasting.

UCP-1 [1] = experiment: UCP-1 expression after NE treatment in primary murine white adipocytes; assay type: cell-based, mouse; conditions: primary murine white adipocytes treated with NE
UCP-1 [2] = experiment: UCP-1 expression after NE treatment in 3T3-L1 cells; assay type: cell-based; conditions: 3T3-L1 cells after NE treatment
Excerpt: The supernatant was withdrawn and used for exosome isolation.

[3] = serum of mice with active BAT (CL-316,243 or cold)

Structure (SMILES)	miR-133a in serum-derived exosomes (C57BL/6J wild type mice; CL-treated mice, 1 μg per g body weight s.c. for 7 days)	miR-34c* in serum exosomes (qPCR) (C57BL/6J wild type mice; [3])	miR-92a in serum exosomes (qPCR) (C57BL/6J wild type mice; [3])	UCP-1 expression (UCP-1 [1])	UCP-1 expression (UCP-1 [2])
C[C@H](Cc1ccc2c(c1)OC(C(=O)[O-])(C(=O)[O-])O2)NC[C@H](O)c1cccc(Cl)c1.[Na+].[Na+] [CL]	down-regulated	significantly up-	down-regulated	–	–
NC[C@H](O)c1ccc(O)c(O)c1 [NE, norepinephrine]	–	–	–	significant increase	did not significantly increase
